Results as given in patent US20250236614A1, “BICYCLIC TETRAHYDROAZEPINE DERIVATIVES” (Hoffmann-La Roche Inc., priority 2022, published 2025).
pEC50: −log10 of the molar value.

Test system: primary human T-cells
Assay: IL2 secretion measurements in CD3-stimulated T-cells
Type: cell-based
Details: Homo sapiens, T-cell, isomer A; for pEC50: CD3 antibody-stimulated T-cells, IL2 in supernatant after 24 hours, read-out: Tcell IL2 CD3 EC50; for Emax: CD3 condition, 24 hours, 20 μM reference compound A1 = 100%, DMSO neutral control, read-out: Emax IL2 (% activation)
Protocol: As readouts for T-cell activation, IL2 secretion after 24 hours and proliferation after 5 days was measured. Increases in IL2 secretion and proliferation upon compound treatment were assessed as the % of the maximum of reference compound A1. WO 2016/139181 discloses reference compound A1 as example 70. As a counter screen and to make sure that no unwanted TCR-independent activation was triggered, PBS conditions were run for all compounds.
Expanded primary human T-cells were thawed and cultured in RPMI 1640 (Gibco, #61870-010)+5% human serum (HS, Sigma, #H3667)+1 mM Sodium Pyruvate (Gibco, #11360-039)+50 μM 2-mercaptoethanol (Gibco, #31350-010) and lx Pen-Strep (Life Technologies, #15140122) medium at density of 2 Mio/ml for 3 hours in 5% CO2, 37° C. and 95% humidity. For coating of plates, […] or PBS++ with CD3 antibody (concentration depending on donor and determined by CD3 titrations) was added 100 μl/well to Poly-D Lysine coated 96-well plates. Plates were sealed and incubated at room temperature for 3 hours on a table-top rocking platform. After incubation, plates were washed once with PBS−− and filled with 40 μl/well culture medium only. Compounds were then added (see next section) to medium only plates. After 3 hours of culturing the T-cells, cells were filtered through a cell strainer (Miltenyi Biotech, #130-041-407), counted again and concentration was adjusted to 1.25 Mio/ml.
Cells were then seeded 80 μl/well to the 40 μl/well including dispensed compounds according to plate layout. By adding cells, compounds were further diluted 1:3, and resulting in 100k cells/120 μl/well. After 24 hours 40 μl of supernatant was collected carefully from the top while not disturbing the cells and transferred into a round bottom 96 well plate. Collected and frozen supernatant was used for detection of IL2 using the IL-2 Human ProQuantum Immunoassay Kit (Invitrogen) or using the Human IL-2 ELISA Kit (Thermo Fisher).
Compounds were added in a 5 or 6 pt dose response with the Tecan D300e Digital Dispenser, all conditions 3 times more concentrated than the end-concentration, since cells are added afterwards (80 μl cells to 40 μl prepared medium with treatment). The DR was starting at 20 μM or 10 μM final top concentration and a dilution factor of 3.333. The positive control was the reference compound A1 that was added in a dose response as well, additionally to 3 wells of only 20 μM representing the positive stimulator control. All wells were normalized with DMSO to a final concentration of 0.6% (0.2% end-concentration).
The immunoassay is done following the manufacturer's manual (Invitrogen, #A35603).
Additional information: For the immunoassay, MicroAmp™ EnduraPlate™ Optical 384-Well plates are used. Frozen supernatant is thawed and centrifuged for 5 minutes at 1000×g, both steps at 4° C. After centrifugation, required sample amount is taken from the top, and in a separate LightCycler V-bottom plate (working plate) diluted with assay dilution buffer, dilution factor depending on the PBS or CD3 condition but at least 1:3. IL-2 standard and blanks are prepared in the same V-bottom plate, standard with a range of […] (extended version). After preparation, […] of sample dilutions or standard/blanks are transferred to the optical 384-well plate (assay plate) and the 10 μl reaction protocol is being followed. For measurement, the QuantStudio 12K Flex system is used. Raw data is extracted and IL-2 concentrations are calculated with the Thermo Fisher online app (apps.thermofisher.com/apps/proquantum).
ELISA is done following the manufacturer's manual (Thermo Fisher Scientific, #88-7025-88).
Additional information: For the ELISA Nunc MaxiSorp 96 well plates are used. Frozen supernatant is thawed and centrifuged for 5 minutes at 1000×g, both steps at 4° C. After that, required sample amount is taken from the top, and in a separate V-bottom plate diluted with ELISA diluent, dilution factor depending on the PBS or CD3 condition. […]

SMILES | pEC50 | Emax
COC(F)(c1nnc(-c2cc3c(cc2F)C(F)(F)C[C@H](N)C(=O)N3Cc2ccc(OC(F)(F)F)cc2)o1)C(F)(F)F (single isomer, unassigned) [Example 4] | 6.09 | 91%
CC(C)(c1nnc(-c2cc3c(cc2F)C(F)(F)C[C@@H](N)C(=O)N3Cc2ccc(-c3noc(C(F)(F)F)n3)cc2)o1)S(C)(=O)=O (single isomer, unassigned) [Example 16] | 5.84 | 183%
N[C@@H]1CC(F)(F)c2cc(F)c(-c3nnc(N4CCOC5(CC5)C4)o3)cc2N(Cc2ccc(-c3noc(C(F)(F)F)n3)cc2)C1=O (single isomer, unassigned) [Example 17] | 5.42 | 107%
CC(C)(C#N)c1nnc(-c2cc3c(cc2F)C(F)(F)C[C@@H](N)C(=O)N3Cc2ccc(-n3nnc(C(F)(F)F)n3)cc2)o1 (single isomer, unassigned) [Example 20] | 5.99 | 161%
N[C@@H]1CC(F)(F)c2cc(F)c(-c3nnc(N4CCCC4)o3)cc2N(Cc2ccc(-n3cnc(C(F)(F)F)n3)cc2)C1=O (single isomer, unassigned) [Example 21] | 5.11 | 63%
CC(C)(c1nnc(-c2cc3c(cc2F)C(F)(F)C[C@@H](N)C(=O)N3Cc2ccc(-n3cnc(C(F)(F)F)n3)cc2)o1)S(C)(=O)=O (single isomer, unassigned) [Example 23] | < 5.56 | 42%
CC(C)(c1nnc(-c2cc3c(cc2F)C(F)(F)C[C@@H](N)C(=O)N3Cc2ccc(-n3cc(C(F)(F)F)cn3)cc2)o1)S(C)(=O)=O (single isomer, unassigned) [Example 29] | < 5.00 | 48%
CC(C)(C#N)c1nnc(-c2cc3c(cc2F)C(F)(F)C[C@@H](N)C(=O)N3Cc2ccc(-n3ccc(C(F)(F)F)n3)cc2)o1 (single isomer, unassigned) [Example 30] | 5.58 | 77%
COC(=O)N1CC2CC(c3nnc(-c4cc5c(cc4F)C(F)(F)C[C@@H](N)C(=O)N5Cc4ccc(-c5ccc(C(F)(F)F)cn5)cc4)o3)(C2)C1 (single isomer, unassigned) [Example 35] | 6.66 | 94%
COC(=O)N1CC2CC(c3nnc(-c4cc5c(cc4F)C(F)(F)C[C@@H](N)C(=O)N5Cc4ccc(Cl)cc4)o3)(C2)C1 (single isomer, unassigned) [Example 36] | 6.07 | 53%
COC(=O)N1CC2CC(c3nnc(-c4cc5c(cc4F)C(F)(F)CC(N)C(=O)N5Cc4ccc(-c5noc(C(F)(F)F)n5)cc4)o3)(C2)C1 (single isomer, unassigned) [Example 42] | 5.54 | 129%
CC(C)(C)c1nnc(-c2cc3c(cc2F)C(F)(F)CC(N)C(=O)N3Cc2ccc(OC(F)(F)F)cc2)o1 (centres unmarked) [Example 1, 3-amino-8-(5-tert-butyl-1,3,4-oxadiazol-2-yl)-5,5,7-trifluoro-1-[[4-(trifluoromethoxy)phenyl]methyl]-3,4-dihydro-1-benzazepin-2-one] | 5.98 | 96%

Second part, led by results:

pEC50 | SMILES | Emax
6.43 | CC(C)(c1nnc(-c2cc3c(cc2F)C(F)(F)C[C@@H](N)C(=O)N3Cc2ccc(-c3ccc(C(F)(F)F)cn3)cc2)o1)S(C)(=O)=O (single isomer, unassigned) [Example 8] | 69%
< 5.00 | CCN1CC(c2nnc(-c3cc4c(cc3F)C(F)(F)C[C@@H](N)C(=O)N4Cc3ccc(OC(F)(F)F)cc3)o2)CC(F)(F)C1 (single isomer, unassigned) [Example 13] | 58%
6.01 | N[C@@H]1CC(F)(F)c2cc(F)c(-c3nnc(N4CCCC4)o3)cc2N(Cc2ccc(-c3noc(C(F)(F)F)n3)cc2)C1=O (single isomer, unassigned) [Example 14] | 239%
5.89 | N[C@@H]1CC(F)(F)c2cc(F)c(-c3nnc(N4CCC(F)(F)CC4)o3)cc2N(Cc2ccc(-c3noc(C(F)(F)F)n3)cc2)C1=O (single isomer, unassigned) [Example 15] | 152%
< 5.56 | CC(C)(C#N)c1nnc(-c2cc3c(cc2F)C(F)(F)C[C@@H](N)C(=O)N3Cc2ccc(-c3ncc(C(F)(F)F)cc3F)cc2)o1 (single isomer, unassigned) [Example 19] | 63%
< 5.56 | N[C@@H]1CC(F)(F)c2cc(F)c(-c3nnc(N4CCC(F)(F)C4)o3)cc2N(Cc2ccc(-n3cnc(C(F)(F)F)n3)cc2)C1=O (single isomer, unassigned) [Example 22] | 31%
7.11 | CC(C)(C#N)c1nnc(-c2cc3c(cc2F)C(F)(F)C[C@@H](N)C(=O)N3Cc2ccc(-c3ccc(OC(F)(F)F)cn3)cc2)o1 (single isomer, unassigned) [Example 24] | 140%
6.52 | CC(C)(c1nnc(-c2cc3c(cc2F)C(F)(F)C[C@@H](N)C(=O)N3Cc2ccc(-c3ccc(OC(F)(F)F)cn3)cc2)o1)S(C)(=O)=O (single isomer, unassigned) [Example 26] | 97%
< 5.56 | CC(C)(C#N)c1nnc(-c2cc3c(cc2F)C(F)(F)C[C@@H](N)C(=O)N3Cc2ccc(-c3cc(C(F)(F)F)ccn3)cc2)o1 (single isomer, unassigned) [Example 27] | 181%
6.17 | CC(C)(C#N)c1nnc(-c2cc3c(cc2F)C(F)(F)C[C@@H](N)C(=O)N3Cc2ccc(-c3ccc(C(F)(F)F)cc3)nc2)o1 (single isomer, unassigned) [Example 28] | 73%
6.22 | CC(C)(c1nnc(-c2cc3c(cc2F)C(F)(F)C[C@@H](N)C(=O)N3Cc2ccc(-c3ccc(C(F)(F)F)cc3)cc2)o1)S(C)(=O)=O (single isomer, unassigned) [Example 32] | 27%
< 5.00 | COCCN1CC(c2nnc(-c3cc4c(cc3F)C(F)(F)C[C@@H](N)C(=O)N4Cc3ccc(-c4ccc(C(F)(F)F)cn4)cc3)o2)CC(F)(F)C1 (single isomer, unassigned) [Example 34] | 31%
5.68 | COc1ccc(-c2ccc(CN3C(=O)[C@H](N)CC(F)(F)c4cc(F)c(-c5nnc(C(C)(C)C#N)o5)cc43)cc2)nc1 (single isomer, unassigned) [Example 38] | 105%
< 5.00 | COc1ccc(-c2ccc(CN3C(=O)[C@H](N)CC(F)(F)c4cc(F)c(-c5nnc(C(C)(C)S(C)(=O)=O)o5)cc43)cc2)nc1 (single isomer, unassigned) [Example 39] | 35%
< 5.00 | CC(C)(C#N)c1nnc(-c2cc3c(cc2F)C(F)(F)C[C@@H](N)C(=O)N3Cc2ccc(-c3ccc(C(F)F)cn3)cc2)o1 (single isomer, unassigned) [Example 40] | 27%
6.05 | CC(C)(C#N)c1nnc(-c2cc3c(cc2F)C(F)(F)C[C@@H](N)C(=O)N3Cc2ccc(-c3ccc(OC(F)F)cn3)cc2)o1 (single isomer, unassigned) [Example 41] | 131%
